# Where two headings read alike, the source gives them in different places. Non-standard residues stand in square brackets, D forms with d. No end group written: not given here. *: point of attachment. Biotin = O=C1N[C@H]2[C@H](CS[C@H]2CCCCC(=O)*)N1; R(dz) = photo-arginine
# Test system: HEK293T nuclear lysates
# Assay: SILAC‐based pull‐down proteomics H4K5acK8ac/H4K5 (probes 8/5)
# Type: binding, human
substance,measurement,setting,value
probe 8: H4K5acK8ac peptide probe with photo‐arginine R(dz) and K(biotin) (SG[R(dz)]GK(Ac)GGK(Ac)GLGKGGK(Biotin)),A6 log2 (H4K5ac8ac/H4K5),,0.04066
same,B6 log2 (H4K5ac8ac/H4K5),,0.03161
same,proteins enriched (SILAC proteomics H4K5acK8ac/H4K5),"365 nm UV 30 min, streptavidin enrichment, n = 2",YEATS4 was enriched
same,A6 log2 (H4K5ac8ac/H4K5),"protein ACO2 (Q99798), replicate A6",0.4428
same,B6 log2 (H4K5ac8ac/H4K5),"protein ACO2 (Q99798), replicate B6",0.07379
same,A6 log2 (H4K5ac8ac/H4K5),"protein ACOT7 (O00154), replicate A6",0.4709
same,B6 log2 (H4K5ac8ac/H4K5),"protein ACOT7 (O00154), replicate B6",-0.02566
same,A6 log2 (H4K5ac8ac/H4K5),"protein AGPS (O00116), replicate A6",-0.04144
same,B6 log2 (H4K5ac8ac/H4K5),"protein AGPS (O00116), replicate B6",0.004198
same,A6 log2 (H4K5ac8ac/H4K5),"protein ALDH18A1 (P54886), replicate A6",0.1932
same,B6 log2 (H4K5ac8ac/H4K5),"protein ALDH18A1 (P54886), replicate B6",0.05067
same,A6 log2 (H4K5ac8ac/H4K5),"protein BUB3 (J3QT28), replicate A6",0.07833
same,B6 log2 (H4K5ac8ac/H4K5),"protein BUB3 (J3QT28), replicate B6",0.05185
same,A6 log2 (H4K5ac8ac/H4K5),"protein C11orf84 (Q9BUA3), replicate A6",-0.4738
same,B6 log2 (H4K5ac8ac/H4K5),"protein C11orf84 (Q9BUA3), replicate B6",-0.01921
same,A6 log2 (H4K5ac8ac/H4K5),"protein CCAR1 (Q8IX12), replicate A6",-0.2516
same,B6 log2 (H4K5ac8ac/H4K5),"protein CCAR1 (Q8IX12), replicate B6",-0.018
same,A6 log2 (H4K5ac8ac/H4K5),"protein CCT2 (P78371), replicate A6",0.3921
same,B6 log2 (H4K5ac8ac/H4K5),"protein CCT2 (P78371), replicate B6",0.08005
same,A6 log2 (H4K5ac8ac/H4K5),"protein CCT3 (B4DUR8), replicate A6",0.2904
same,B6 log2 (H4K5ac8ac/H4K5),"protein CCT3 (B4DUR8), replicate B6",0.07923
same,A6 log2 (H4K5ac8ac/H4K5),"protein CHAF1A (Q13111), replicate A6",-0.1099
same,B6 log2 (H4K5ac8ac/H4K5),"protein CHAF1A (Q13111), replicate B6",0.08018
same,A6 log2 (H4K5ac8ac/H4K5),"protein CHD1L (A0A494C1F7), replicate A6",0.1451
same,B6 log2 (H4K5ac8ac/H4K5),"protein CHD1L (A0A494C1F7), replicate B6",0.0657
same,A6 log2 (H4K5ac8ac/H4K5),"protein CORO1B (Q9BR76), replicate A6",0.2889
same,B6 log2 (H4K5ac8ac/H4K5),"protein CORO1B (Q9BR76), replicate B6",0.06919
same,A6 log2 (H4K5ac8ac/H4K5),"protein CPOX (P36551), replicate A6",0.124
same,B6 log2 (H4K5ac8ac/H4K5),"protein CPOX (P36551), replicate B6",0.04785
same,A6 log2 (H4K5ac8ac/H4K5),"protein DNAJA2 (O60884), replicate A6",0.3475
same,B6 log2 (H4K5ac8ac/H4K5),"protein DNAJA2 (O60884), replicate B6",-0.007896
same,A6 log2 (H4K5ac8ac/H4K5),"protein DYNC1LI1 (Q9Y6G9), replicate A6",0.04173
same,B6 log2 (H4K5ac8ac/H4K5),"protein DYNC1LI1 (Q9Y6G9), replicate B6",-0.03653
same,A6 log2 (H4K5ac8ac/H4K5),"protein DYNC1LI2 (O43237), replicate A6",-0.06254
same,B6 log2 (H4K5ac8ac/H4K5),"protein DYNC1LI2 (O43237), replicate B6",-0.0172
same,A6 log2 (H4K5ac8ac/H4K5),"protein EEF1A2 (Q05639), replicate A6",0.1545
same,B6 log2 (H4K5ac8ac/H4K5),"protein EEF1A2 (Q05639), replicate B6",0.03088
same,A6 log2 (H4K5ac8ac/H4K5),"protein EIF3G (O75821), replicate A6",-0.1739
same,B6 log2 (H4K5ac8ac/H4K5),"protein EIF3G (O75821), replicate B6",0.07863
same,A6 log2 (H4K5ac8ac/H4K5),"protein EML4 (Q9HC35), replicate A6",-0.3051
same,B6 log2 (H4K5ac8ac/H4K5),"protein EML4 (Q9HC35), replicate B6",0.01001
same,A6 log2 (H4K5ac8ac/H4K5),"protein EXOSC10 (Q01780), replicate A6",0.04791
same,B6 log2 (H4K5ac8ac/H4K5),"protein EXOSC10 (Q01780), replicate B6",-0.03432
same,A6 log2 (H4K5ac8ac/H4K5),"protein FEN1 (P39748), replicate A6",0.2678
same,B6 log2 (H4K5ac8ac/H4K5),"protein FEN1 (P39748), replicate B6",0.04436
same,A6 log2 (H4K5ac8ac/H4K5),"protein FKBP4 (Q02790), replicate A6",-0.547
same,B6 log2 (H4K5ac8ac/H4K5),"protein FKBP4 (Q02790), replicate B6",-0.03149
same,A6 log2 (H4K5ac8ac/H4K5),"protein FTO (A0A1B0GTY1), replicate A6",0.04491
same,B6 log2 (H4K5ac8ac/H4K5),"protein FTO (A0A1B0GTY1), replicate B6",0.03394
same,A6 log2 (H4K5ac8ac/H4K5),"protein FUBP1 (Q96AE4), replicate A6",-0.499
same,B6 log2 (H4K5ac8ac/H4K5),"protein FUBP1 (Q96AE4), replicate B6",0.06296
same,A6 log2 (H4K5ac8ac/H4K5),"protein GATAD2B (A0A0U1RRM1), replicate A6",0.09181
same,B6 log2 (H4K5ac8ac/H4K5),"protein GATAD2B (A0A0U1RRM1), replicate B6",-0.04991
same,A6 log2 (H4K5ac8ac/H4K5),"protein GMPS (P49915), replicate A6",0.3016
same,B6 log2 (H4K5ac8ac/H4K5),"protein GMPS (P49915), replicate B6",-0.02008
same,A6 log2 (H4K5ac8ac/H4K5),"protein GPKOW (Q92917), replicate A6",-0.007755
same,B6 log2 (H4K5ac8ac/H4K5),"protein GPKOW (Q92917), replicate B6",0.07952
same,A6 log2 (H4K5ac8ac/H4K5),"protein GTF2I (P78347), replicate A6",0.3176
same,B6 log2 (H4K5ac8ac/H4K5),"protein GTF2I (P78347), replicate B6",-0.03285
same,A6 log2 (H4K5ac8ac/H4K5),"protein HADHA (P40939), replicate A6",0.03109
same,B6 log2 (H4K5ac8ac/H4K5),"protein HADHA (P40939), replicate B6",0.08176
same,A6 log2 (H4K5ac8ac/H4K5),"protein HNRNPA2B1 (P22626), replicate A6",-0.08912
same,B6 log2 (H4K5ac8ac/H4K5),"protein HNRNPA2B1 (P22626), replicate B6",0.03979
same,A6 log2 (H4K5ac8ac/H4K5),"protein HNRNPAB (D6R9P3), replicate A6",-0.001487
same,B6 log2 (H4K5ac8ac/H4K5),"protein HNRNPAB (D6R9P3), replicate B6",0.001897
same,A6 log2 (H4K5ac8ac/H4K5),"protein HNRNPD (D6RAF8), replicate A6",-0.05205
same,B6 log2 (H4K5ac8ac/H4K5),"protein HNRNPD (D6RAF8), replicate B6",0.06546
same,A6 log2 (H4K5ac8ac/H4K5),"protein HNRNPM (A0A087X0X3), replicate A6",0.04259
same,B6 log2 (H4K5ac8ac/H4K5),"protein HNRNPM (A0A087X0X3), replicate B6",0.03533
same,A6 log2 (H4K5ac8ac/H4K5),"protein HNRNPUL1 (A0A0A0MRA5), replicate A6",0.04263
same,B6 log2 (H4K5ac8ac/H4K5),"protein HNRNPUL1 (A0A0A0MRA5), replicate B6",0.07976
same,A6 log2 (H4K5ac8ac/H4K5),"protein HSP90AB1 (P08238), replicate A6",0.1705
same,B6 log2 (H4K5ac8ac/H4K5),"protein HSP90AB1 (P08238), replicate B6",-0.003539
same,A6 log2 (H4K5ac8ac/H4K5),"protein ILF3 (Q12906), replicate A6",-0.01185
same,B6 log2 (H4K5ac8ac/H4K5),"protein ILF3 (Q12906), replicate B6",0.0307
same,A6 log2 (H4K5ac8ac/H4K5),"protein IRS4 (O14654), replicate A6",0.9009
same,B6 log2 (H4K5ac8ac/H4K5),"protein IRS4 (O14654), replicate B6",0.04996
same,A6 log2 (H4K5ac8ac/H4K5),"protein KHDRBS1 (Q07666), replicate A6",-0.03568
same,B6 log2 (H4K5ac8ac/H4K5),"protein KHDRBS1 (Q07666), replicate B6",0.03173
same,A6 log2 (H4K5ac8ac/H4K5),"protein KIF23 (A0A2U3TZL8), replicate A6",-0.125
same,B6 log2 (H4K5ac8ac/H4K5),"protein KIF23 (A0A2U3TZL8), replicate B6",0
same,A6 log2 (H4K5ac8ac/H4K5),"protein LARS (Q9P2J5), replicate A6",0.1335
same,B6 log2 (H4K5ac8ac/H4K5),"protein LARS (Q9P2J5), replicate B6",0.07151
same,A6 log2 (H4K5ac8ac/H4K5),"protein LEMD3 (Q9Y2U8), replicate A6",0.3015
same,B6 log2 (H4K5ac8ac/H4K5),"protein LEMD3 (Q9Y2U8), replicate B6",-0.02986
same,A6 log2 (H4K5ac8ac/H4K5),"protein MAZ (I3L2Z5), replicate A6",0.4619
same,B6 log2 (H4K5ac8ac/H4K5),"protein MAZ (I3L2Z5), replicate B6",0.02009
same,A6 log2 (H4K5ac8ac/H4K5),"protein MCM2 (P49736), replicate A6",-0.3105
same,B6 log2 (H4K5ac8ac/H4K5),"protein MCM2 (P49736), replicate B6",0.01892
same,A6 log2 (H4K5ac8ac/H4K5),"protein MCM4 (E5RG31), replicate A6",-0.08812
same,B6 log2 (H4K5ac8ac/H4K5),"protein MCM4 (E5RG31), replicate B6",0.02676
same,A6 log2 (H4K5ac8ac/H4K5),"protein MCM5 (P33992), replicate A6",0.07464
same,B6 log2 (H4K5ac8ac/H4K5),"protein MCM5 (P33992), replicate B6",0.03074
same,A6 log2 (H4K5ac8ac/H4K5),"protein MCM6 (Q14566), replicate A6",0.0904
same,B6 log2 (H4K5ac8ac/H4K5),"protein MCM6 (Q14566), replicate B6",0.06523
same,A6 log2 (H4K5ac8ac/H4K5),"protein MLL2 (O14686), replicate A6",0.2969
same,B6 log2 (H4K5ac8ac/H4K5),"protein MLL2 (O14686), replicate B6",0.009441
same,A6 log2 (H4K5ac8ac/H4K5),"protein MRPL37 (Q9BZE1), replicate A6",0.1893
same,B6 log2 (H4K5ac8ac/H4K5),"protein MRPL37 (Q9BZE1), replicate B6",-0.03363
same,A6 log2 (H4K5ac8ac/H4K5),"protein MYH9 (P35579), replicate A6",0.0533
